Like-named read-outs stand apart in the source and are kept apart here.
What was measured:
[1] = system: Enterococcus faecalis EFS.201 (ATCC 49452); format: cell-based
Description: (§1) Compounds according to Formula I were tested for antimicrobial activity against a panel of organisms. Aerobic organisms, Staphylococcus aureus, Enterococcus faecalis and E. faecium, were tested by broth microdilution according to Clinical and Laboratory Standards Institute (CLSI) document M7-A7 (Clinical and Laboratory Standards Institute. Methods for Dilution Antimicrobial Susceptibility Tests for Bacteria that Grow Aerobically; Approved Standard—Seventh Edition. CLSI document M7-A7 [ISBN 1-56238-587-9]. Clinical and Laboratory Standards Institute, 940 West Valley Road, Suite 1400, Wayne, Pa. 19087-1898 USA, 2006) with modifications as described below. Mueller Hinton Broth (MHBc) was supplemented with 50 mg/L calcium (equivalent to human physiological levels of calcium) and assay plates were incubated 18-20 hours at 37° C. with aeration (200 rpm).
(§2) In all cases the final concentration of dimethyl sulfoxide incubated with cells is less than or equal to 1%. For minimum inhibitory concentration (MIC) calculations, 2-fold dilutions of compounds were added to wells of a microtiter plate containing 5×10^5 bacteria in a final volume of 100 μL of media. Following incubation, (18-20 hours at 37° C. with aeration at 200 rpm) growth was confirmed visually by placing plates over a viewing apparatus (stand with a mirror underneath) and then the optical density (OD600) was measured using a SpectraMax 340PC^384 plate reader. Growth was defined as turbidity that could be detected with the naked eye or achieving minimum OD600of 0.1. MIC values (in μg/mL) were defined as the lowest concentration producing no visible turbidity.

[2] = system: Enterococcus faecalis EFS.312, Daptomycin resistant mutant (EFA); format: cell-based; details: MHBc with 50 mg/L calcium, 18-20 hours at 37° C.
Description: as §1, §2

[3] = system: Enterococcus faecium EFM.14 (ATCC 6569); format: cell-based
Description: as §1, §2

[4] = system: Enterococcus faecium EFM.384, Daptomycin resistant mutant (14-A); format: cell-based; details: MHBc with 50 mg/L calcium, 18-20 hours at 37° C.
Description: as §1, §2

[5] = system: Staphylococcus aureus SAU.278, Daptomycin resistant mutant (D10); format: cell-based; details: MHBc with 50 mg/L calcium, 18-20 hours at 37° C.
Description: as §1, §2

[6] = system: Staphylococcus aureus SAU.399 (ATCC 43300), Methicillin and Oxacillin Resistant; format: cell-based
Description: as §1, §2

[7] = system: Staphylococcus aureus SAU.42 (ATCC 29213); format: cell-based
Description: as §1, §2

[8] = system: Clostridium difficile
[9] = MHBc with 50 mg/L calcium, 18-20 hours at 37° C.

For `CCCCCCCCCC(C)NC(=O)N[C@@H](Cc1c[nH]c2ccccc12)C(=O)N[C@H](CC(N)=O)C(=O)N[C@@H](CC(=O)O)C(=O)N[C@@H]1C(=O)NCC(=O)N[C@@H](CCCN)C(=O)N[C@@H](CC(=O)O)C(=O)N[C@H](C)C(=O)N[C@@H](CC(=O)O)C(=O)NCC(=O)N[C@H](CO)C(=O)N[C@@H]([C@H](C)CC(=O)O)C(=O)N[C@@H](CC(=O)c2ccccc2N)C(=O)O[C@@H]1C` (single isomer, unassigned) [14 isomer II], the “Efs201 MIC” value ([1]; ATCC 49452) was 0.5 µg/mL, the “Efs312 MIC” value [2] was 16 µg/mL and the “Efm14 MIC” value ([3]; ATCC 6569) was 0.25 µg/mL. The “Efm384 MIC” value [4] was 8 µg/mL, the “Sa278 MIC” value [5] was 1 µg/mL and the “Sa399 MIC” value ([6]; ATCC 43300) was 0.25 µg/mL. The “Sa42 MIC” value ([7]; ATCC 29213) was 0.25 µg/mL and the “C. diff MIC90” value [8] was 2 µg/mL.

For `CCCCCCCCCC(C)NC(=O)N[C@@H](Cc1c[nH]c2ccccc12)C(=O)N[C@H](CC(N)=O)C(=O)N[C@@H](CC(=O)O)C(=O)N[C@@H]1C(=O)NCC(=O)N[C@@H](CCCN)C(=O)N[C@@H](CC(=O)O)C(=O)N[C@H](C)C(=O)N[C@@H](CC(=O)O)C(=O)NCC(=O)N[C@H](CO)C(=O)N[C@@H]([C@H](C)CC(=O)O)C(=O)N[C@@H](CC(=O)c2ccccc2N)C(=O)O[C@@H]1C` (single isomer, unassigned) [14 isomer I], the “Efs201 MIC” value ([1]; ATCC 49452) was 1 µg/mL, the “Efs312 MIC” value [2] was 32 µg/mL and the “Efm14 MIC” value ([3]; ATCC 6569) was 0.5 µg/mL. The “Efm384 MIC” value [4] was 8 µg/mL, the “Sa278 MIC” value [5] was 1 µg/mL and the “Sa399 MIC” value ([6]; ATCC 43300) was 0.5 µg/mL. For the same molecule, the “Sa42 MIC” value ([7]; ATCC 29213) was 0.25 µg/mL and the “C. diff MIC90” value [8] was 1.0 µg/mL.

For `CCCCCCCCC1CC1C(=O)N[C@@H](Cc1c[nH]c2ccccc12)C(=O)N[C@H](CC(N)=O)C(=O)N[C@@H](CC(=O)O)C(=O)N[C@@H]1C(=O)NCC(=O)N[C@@H](CCCN)C(=O)N[C@@H](CC(=O)O)C(=O)N[C@H](C)C(=O)N[C@@H](CC(=O)O)C(=O)NCC(=O)N[C@H](CO)C(=O)N[C@@H]([C@H](C)CC(=O)O)C(=O)N[C@@H](CC(=O)c2ccccc2N)C(=O)O[C@@H]1C` (single isomer, unassigned) [27 isomer II], the “Efs201 MIC” value ([1]; ATCC 49452) was 0.5 µg/mL, the “Efs312 MIC” value [2] was 32 µg/mL and the “Efm14 MIC” value ([3]; ATCC 6569) was 1 µg/mL. The “Efm384 MIC” value [4] was 4 µg/mL, the “Sa278 MIC” value [5] was 2 µg/mL and the “Sa399 MIC” value ([6]; ATCC 43300) was 0.5 µg/mL. For the same molecule, the “Sa42 MIC” value ([7]; ATCC 29213) was 1 µg/mL and the “C. diff MIC90” value [8] was 1 µg/mL.

For `CCCCCCCCC1CC1C(=O)N[C@@H](Cc1c[nH]c2ccccc12)C(=O)N[C@H](CC(N)=O)C(=O)N[C@@H](CC(=O)O)C(=O)N[C@@H]1C(=O)NCC(=O)N[C@@H](CCCN)C(=O)N[C@@H](CC(=O)O)C(=O)N[C@H](C)C(=O)N[C@@H](CC(=O)O)C(=O)NCC(=O)N[C@H](CO)C(=O)N[C@@H]([C@H](C)CC(=O)O)C(=O)N[C@@H](CC(=O)c2ccccc2N)C(=O)O[C@@H]1C` (single isomer, unassigned) [27 isomer I], the “Efs201 MIC” value ([1]; ATCC 49452) was 2 µg/mL, the “Efs312 MIC” value [2] was 32 µg/mL and the “Efm14 MIC” value ([3]; ATCC 6569) was 4 µg/mL. For the same molecule, the “Efm384 MIC” value [4] was 32 µg/mL, the “Sa278 MIC” value [5] was 8 µg/mL and the “Sa399 MIC” value ([6]; ATCC 43300) was 2 µg/mL. The “Sa42 MIC” value ([7]; ATCC 29213) was 2 µg/mL and the “C. diff MIC90” value [8] was 2 µg/mL.

`CC(C)Cc1ccc(C(C)C(=O)N[C@@H](Cc2c[nH]c3ccccc23)C(=O)N[C@H](CC(N)=O)C(=O)N[C@@H](CC(=O)O)C(=O)N[C@@H]2C(=O)NCC(=O)N[C@@H](CCCN)C(=O)N[C@@H](CC(=O)O)C(=O)N[C@H](C)C(=O)N[C@@H](CC(=O)O)C(=O)NCC(=O)N[C@H](CO)C(=O)N[C@@H]([C@H](C)CC(=O)O)C(=O)N[C@@H](CC(=O)c3ccccc3N)C(=O)O[C@@H]2C)cc1` (single isomer, unassigned) [45 isomer II] was tested, and the “Efs201 MIC” value ([1]; ATCC 49452) was 32 µg/mL, the “Efs312 MIC” value [2] was >32 µg/mL and the “Efm14 MIC” value ([3]; ATCC 6569) was 32 µg/mL. For the same molecule, the “Efm384 MIC” value [4] was >32 µg/mL, the “Sa278 MIC” value [5] was >32 µg/mL and the “Sa399 MIC” value ([6]; ATCC 43300) was 4 µg/mL. The “Sa42 MIC” value ([7]; ATCC 29213) was 4 µg/mL and the “C. diff MIC90” value [8] was 8 µg/mL.

With `CCCCCCC1CCC(c2ccc(C(=O)N[C@@H](Cc3c[nH]c4ccccc34)C(=O)N[C@H](CC(N)=O)C(=O)N[C@@H](CC(=O)O)C(=O)N[C@@H]3C(=O)NCC(=O)N[C@@H](CCCN)C(=O)N[C@@H](CC(=O)O)C(=O)N[C@H](C)C(=O)N[C@@H](CC(=O)O)C(=O)NCC(=O)N[C@H](CO)C(=O)N[C@@H]([C@H](C)CC(=O)O)C(=O)N[C@@H](CC(=O)c4ccccc4N)C(=O)O[C@@H]3C)cc2)CC1` (single isomer, unassigned) [54 isomer II] the “Efs201 MIC” value ([1]; ATCC 49452) was 2 µg/mL, the “Efm14 MIC” value ([3]; ATCC 6569) was 1 µg/mL and the “Sa399 MIC” value ([6]; ATCC 43300) was 1 µg/mL. For the same molecule, the “Sa42 MIC” value ([7]; ATCC 29213) was 1 µg/mL and the “C. diff MIC90” value [8] was 4 µg/mL.

With `CCCCCCOc1ccc(/C=C/C(=O)N[C@@H](Cc2c[nH]c3ccccc23)C(=O)N[C@H](CC(N)=O)C(=O)N[C@@H](CC(=O)O)C(=O)N[C@@H]2C(=O)NCC(=O)N[C@@H](CCCN)C(=O)N[C@@H](CC(=O)O)C(=O)N[C@H](C)C(=O)N[C@@H](CC(=O)O)C(=O)NCC(=O)N[C@H](CO)C(=O)N[C@@H]([C@H](C)CC(=O)O)C(=O)N[C@@H](CC(=O)c3ccccc3N)C(=O)O[C@@H]2C)cc1` [Compound 42] the “Efs201 MIC” value [1, 9] was 1 µg/mL, the “Efm14 MIC” value [3, 9] was 2 µg/mL and the “Efm384 MIC” value [4] was 8 µg/mL. The “Sa278 MIC” value [5] was 4 µg/mL, the “Sa399 MIC” value [6, 9] was 1 µg/mL and the “Sa42 MIC” value [7, 9] was 0.5 µg/mL. For the same molecule, the “C. diff MIC90” value [8] was 0.5 µg/mL.

For `CCCSc1ccc(-c2csc(C(=O)N[C@@H](Cc3c[nH]c4ccccc34)C(=O)N[C@H](CC(N)=O)C(=O)N[C@@H](CC(=O)O)C(=O)N[C@@H]3C(=O)NCC(=O)N[C@@H](CCCN)C(=O)N[C@@H](CC(=O)O)C(=O)N[C@H](C)C(=O)N[C@@H](CC(=O)O)C(=O)NCC(=O)N[C@H](CO)C(=O)N[C@@H]([C@H](C)CC(=O)O)C(=O)N[C@@H](CC(=O)c4ccccc4N)C(=O)O[C@@H]3C)c2)cc1` [Compound 56], the “Efs201 MIC” value ([1]; ATCC 49452) was 8 µg/mL, the “Efs312 MIC” value [2] was >32 µg/mL and the “Efm14 MIC” value ([3]; ATCC 6569) was 8 µg/mL. For the same molecule, the “Efm384 MIC” value [4] was 32 µg/mL, the “Sa278 MIC” value [5] was 8 µg/mL and the “Sa399 MIC” value ([6]; ATCC 43300) was 2 µg/mL. For the same molecule, the “Sa42 MIC” value ([7]; ATCC 29213) was 2 µg/mL.

With `CCCCOc1ccc(-c2ccc(C(=O)N[C@@H](Cc3c[nH]c4ccccc34)C(=O)N[C@H](CC(N)=O)C(=O)N[C@@H](CC(=O)O)C(=O)N[C@@H]3C(=O)NCC(=O)N[C@@H](CCCN)C(=O)N[C@@H](CC(=O)O)C(=O)N[C@H](C)C(=O)N[C@@H](CC(=O)O)C(=O)NCC(=O)N[C@H](CO)C(=O)N[C@@H]([C@H](C)CC(=O)O)C(=O)N[C@@H](CC(=O)c4ccccc4N)C(=O)O[C@@H]3C)cc2)cc1` [Compound 60] the “Efs201 MIC” value ([1]; ATCC 49452) was 4 µg/mL, the “Efs312 MIC” value [2] was >32 µg/mL and the “Efm14 MIC” value ([3]; ATCC 6569) was 4 µg/mL. For the same molecule, the “Efm384 MIC” value [4] was 16 µg/mL, the “Sa278 MIC” value [5] was 8 µg/mL and the “Sa399 MIC” value ([6]; ATCC 43300) was 4 µg/mL. The “Sa42 MIC” value ([7]; ATCC 29213) was 1 µg/mL.

With `C[C@H](CC(=O)O)[C@@H]1NC(=O)[C@@H](CO)NC(=O)CNC(=O)[C@H](CC(=O)O)NC(=O)[C@@H](C)NC(=O)[C@H](CC(=O)O)NC(=O)[C@H](CCCN)NC(=O)CNC(=O)[C@@H](NC(=O)[C@H](CC(=O)O)NC(=O)[C@@H](CC(N)=O)NC(=O)[C@H](Cc2c[nH]c3ccccc23)NC(=O)Cc2ccc(-c3ccc(Cl)cc3)cc2)[C@@H](C)OC(=O)[C@H](CC(=O)c2ccccc2N)NC1=O` [Compound 65] the “Efs201 MIC” value ([1]; ATCC 49452) was 8 µg/mL, the “Efs312 MIC” value [2] was >32 µg/mL and the “Efm14 MIC” value ([3]; ATCC 6569) was 8 µg/mL. For the same molecule, the “Efm384 MIC” value [4] was >32 µg/mL, the “Sa278 MIC” value [5] was 16 µg/mL and the “Sa399 MIC” value ([6]; ATCC 43300) was 2 µg/mL. The “Sa42 MIC” value ([7]; ATCC 29213) was 2 µg/mL.
